Molecules are shown by their SMILES.

One assay deals with lactate dehydrogenase B. The assay is described as follows: Immunocytochemistry of lactate dehydrogenase B in ARPE-19 cells. Type of assay: cell-based, Human. The note with it: 2.5 mM, hypoxia. The protocol: Human retinal pigment epithelium cell line, ARPE-19, was purchased from American Type Culture Collection (Manassas, VA, USA). The ARPE-19 cells were maintained in RPMI1640 containing 10% fetal bovine serum (Life Technologies, Gaithersburg, MD, USA), 100 IU/ml penicillin, and 100 μg/ml streptomycin (Welgene, Daegu, South Korea).
ARPE-19 and SK-N-SH cells were fixed on bio-coated coverslips (BD bioscience, San Jose, CA, USA) by 4% PFA for 20 min and then incubated with the primary antibodies for 15 h. The primary antibodies were as follows: HIF-1a (1:300, BD Biosciences, San Jose, CA, USA); LDH-A (1:300, Santa Cruz Biotechnology, Santa Cruz, CA, USA); LDH-B (1:300, Santa Cruz Biotechnology, Santa Cruz, CA, USA); NF-κB (1:300, Santa Cruz Biotechnology, Santa Cruz, CA, USA); TLR-4 (1:300, Santa Cruz Biotechnology, Santa Cruz, CA, USA); apoE (1:200, Santa Cruz Biotechnology, Santa Cruz, CA, USA). After PBS wash, the cells were incubated with anti-mouse secondary biotinylated antibody (1:2000, Vector Laboratorie, Burlingame, CA, USA) and visualized with streptavidin conjugated to Fluorescein (Vector Laboratorie, Burlingame, CA, USA). […] Confocal fluorescence images were obtained with confocal laser scanning microscopy (LSCM, Nikon A1+, Tokyo, Japan) under a 60× oil immersion lens.

The next assay has as its system NF-κb. The assay is described as follows: Western blot of NF-κb in the tissue of retinal pigment epithelium. Type of assay: in vivo, mice. The note with it: 2.5 mM (so in the source). The protocol: To prepare whole cell lysate, cells were lysed with lysis buffer (1% NP-40, 0.25% sodium deoxycholate, 150 mM NaCl, 1 mM EDTA, 1% Triton X-100, 50 mM Tris-HCl (pH 7.4), 10% Glycerol) with protease inhibitor cocktail (Roche, Basel, Switzerland) and phosphatase inhibitors (NA3VO4 1 mM, NaF 100 mM). Then, protein concentration was measured using the Bicinchoninic acid (BCA) assay kit (Thermo Scientific, Waltham, MA). Whole cell or nuclear lysates were transferred onto polyvinylidene fluoride membranes (Merck Millipore, Billerica, MA, USA). After blocking in 5% non-fat milk (Bio-Rad, Hercules, CA, USA) for 1 h, the membranes were incubated overnight at 4° C. with primary antibody diluted in TBST containing 100 mM Tris-HCl (pH 7.5), 1.5 M NaCl, and 0.5% Tween-20 obtained from Sigma-Aldrich, to which 5% BSA and 0.1% sodium azide (Sigma-Aldrich) had been added. Specific primary antibodies to HIF-1α (1:1000), HIF-2α (1:1000), LDH-A (1:1000), LDH-B (1:1000), TLR-4 (1:1000), NF-κB (1:1000), VEGF (1:1000), α-tubulin (1:1000), Actin (1:1000), and GAPDH (1:5000). The next day, the membranes were washed with TBST and incubated for 2 h with anti-rabbit secondary antibody (1:10000). Immunoblots were developed using a western blot detection reagent (Abclone, Seoul, Korea) and exposed to x-ray film (Agfa, Leverkusen, Germany) according to the manufacturer's protocol. […]

The next assay concerns 6-OHDA injected rats. The assay can be described thus: Parkinson's disease model, desipramine and 6-OHDA injection. Type of assay: in vivo, Sprague-Dawley (SD) rats. To be noted: 2 mg/kg daily subcutaneous 21 days; 6-OHDA rats. The protocol:
Animals. […] Eight-week old male Sprague-Dawley (SD) rats were obtained from Samtako Co. (Osan, Gyeonggi-do, Republic of Korea) and bred under specific-pathogen-free (SPF) conditions. All animals were maintained in a 12-hour light/dark cycle at 22-25° C. with free access to food and water.
Desipramine (12.5 mg/kg; noradrenaline transporter blocker; Sigma Aldrich, St. Louis, USA) was dissolved in saline for intraperitoneal injection. 6-OHDA (20 μg/rat, Sigma Aldrich, St. Louis, USA) was dissolved in saline for intracranial injection.
Injection of desipramine and 6-OHDA. The animals were injected with desipramine into the abdominal cavity (intraperitoneal injection) 30 min before 6-OHDA injection. 30 min after Desipramine injection, the animals were placed in a small acrylic cage that was coupled with an anesthesia machine that allowed them to breathe freely under gaseous anesthesia (2% isoflurane, Spartanburg, SC, USA). […] The animal fur of head was shaved with an electric clipper, and the skin was swabbed with iodine. All the surgical materials disinfected with 70% ethanol. Hamilton syringe barrel inner space was cleaned with distilled water and 70% ethanol. The Hamilton syringe was placed in the syringe holder. […] The three coordinates (AP: −5.6, LM: 2.0, and DV: −7.6) on the manipulator (in mm) were read and used as the starting point. […]

Turning to `CC(O)C(=O)[O-].CC(O)C(=O)[O-].[Ca+2]` (stereo not drawn) [calcium lactate], in the assay on lactate dehydrogenase B, the “lactate dehydrogenase B, immunocytochemistry” value was “increased”. Moreover, in the assay on NF-κb, the “inflammatory factor (NF-κb), Western blot” value is reported as “decreased”. In the assay on 6-OHDA injected rats, the “dopaminergic neuron (tyrosine hydroxylase staining)” value is listed as “Recovery”.
